Values joined by “and” are separate entries in the source; they are usually repeats but may differ in a detail not shown here. Equal values may be shown once. Read-outs that look alike come from different tables or passages of the source.
What was measured:
[1] = tested on: 3D7-strain P. falciparum asexual parasites; assay: P. falciparum asexual growth inhibition assay (Pf GIA); type: cell-based, Plasmodium falciparum; conditions: Plasmodium falciparum
How it was run: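 Read-out was lactate dehydrogenase activity measured by absorbance at 650 nm after freezing and thawing, against 50 μM chloroquine and DMSO controls. Before that, asexual 3D7 cultures (0.25% parasitemia, 2% hematocrit) had 72 h dose-response compound exposure at 37°C in 5% CO2/5% O2/90% N2; three independent replicates averaged.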

HepG2 cells [2] = assay: HepG2 cytotoxicity assay; conditions: for Pb ODA (this manuscript) HepG2 cytoxicity: HepG2 cytotoxicity listed with the Pb ODA data set (this manuscript); for IC50: Homo sapiens, HepG2, 48 h, read-out: IC50 HepG2
How it was run: (§1)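 Here viability after a 48 h compound incubation (37°C, humidified 5% CO2) is measured by fluorescence and expressed as percent inhibition, with doxorubicin at 50 μM and DMSO as the bounding controls.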

[3] = tested on: P. berghei ookinete development
[4] = tested on: P. berghei ookinete development; assay: microbe, parasite or virus in culture; conditions: Plasmodium berghei
[5] = tested on: P. berghei oocyst intensity in Anopheles stephensi mosquitoes; assay: P. berghei standard membrane feeding assay (Pb SMFA); conditions: for Raw mosquito counts (oocysts per mosquito): one mosquito per cell; for Number of oocysts counted per mosquito (raw mosquito counts): individual mosquito
[6] = tested on: P. falciparum male gametocytes; assay: P. falciparum Dual Gamete Formation Assay (Pf DGFA), male readout; conditions: for Pf DGFA Male, Expt 1 / Pf DGFA Male, Expt 2 / Pf DGFA Male, Expt 3 / Pf DGFA Male, Expt 4: 1µM; for inhibition at 1 µM: Plasmodium falciparum, read-out: % inhibition Pf DGFA (male) 1 μM (±SEM), 1 μM, mean of four experiments; for % inhibition Pf DGFA (male) 1 μM (±SEM): mean of four experiments
[7] = tested on: P. falciparum female gametocytes; assay: P. falciparum Dual Gamete Formation Assay (Pf DGFA), female readout; conditions: for Pf DGFA Female, Expt 1 / Pf DGFA Female, Expt 2 / Pf DGFA Female, Expt 3 / Pf DGFA Female, Expt 4: 1µM; for % inhibition Pf DGFA (female) 1 μM (±SEM): mean of four experiments; for inhibition at 1 µM: Plasmodium falciparum, read-out: % inhibition Pf DGFA (female) 1 μM (±SEM), 1 μM, mean of four experiments
HepG2 cytotoxicity assay = conditions: human, HepG2 cells
How it was run: as §1

[8] = tested on: P. falciparum late stage (stages IV-V) gametocytes; design: method as in Almela et al 2016; conditions: TCAMS screen comparison; ref Almela et al 2016; read-out: Pf GCT ATP IC50; cited from earlier work
[9] = tested on: P. falciparum female gametocytes; design: method as in Miguel-Blanco et al 2017; conditions: ref Miguel-Blanco et al 2017, read-out: Pf FGAA IC50, cited from earlier work
HepG2 cells [10] = conditions: cited from earlier work
[11] = tested on: P. falciparum female gametocytes; assay: P. falciparum female gametogenesis assay (Pf FGAA); conditions: 1: YES; 0: NO
[12] = 3D7, dose response confirmation, read-out: Pf asexual growth inhibition assays IC50
[13] = 3D7, 72 h, LDH readout, read-out: IC50 Pf Asexual
[14] = read-out: % inhibition, Replicate A
[15] = read-out: % inhibition, Replicate B
[16] = read-out: IC50 Pb ODA, dose response, at least triplicate
[17] = read-out: % inhibition Pb SMFA 1 μM (±SEM), inhibition of oocyst intensity at 1 μM
[18] = read-out: Pb Ookinete development assay IC50 (µM), dose response confirmation

## Cc1[nH]c(C)c(-c2ccc(CCc3ccc(F)cc3F)cc2)c(=O)c1Br [TCMDC-135461]
[1]; [12]
  IC50: 3 nM
[1]; [13]
  IC50: 3.1 nM
HepG2 cells [2]
  Pb ODA (this manuscript) HepG2 cytoxicity: 100.00 µM
  IC50: > 100000 nM
[3]
  Is compound selective in assay? Pb ODA active?: 1 (key: 1: YES; 0: NO)
[4]; [14]
  inhibition at 1 µM: 68.3%
[4]; [15]
  inhibition at 1 µM: 109%
[4]; [16]
  IC50: < 0.0002 µM
[5]; Experiment 4, 10nM
  Mean (number of oocysts counted per mosquito): 0.78
  Prevalence: 45.65
[5]; Experiment 4, 100nM
  Mean (number of oocysts counted per mosquito): 0.00
  Raw mosquito counts (oocysts per mosquito): 0
[5]; Experiment 4, 1µM
  Mean (number of oocysts counted per mosquito): 0.00
  Prevalence: 0.00
  Raw mosquito counts (oocysts per mosquito): 0
[5]; Experiment 5, 10nM
  Mean (number of oocysts counted per mosquito): 2.70
  Prevalence: 45.65
[5]; Experiment 5, 100nM
  Mean (number of oocysts counted per mosquito): 1.53
  Number of oocysts counted per mosquito (raw mosquito counts): 0 and 1 and 3
[5]; Experiment 5, 1µM
  Mean (number of oocysts counted per mosquito): 0.00
  Prevalence: 0.00
  Number of oocysts counted per mosquito (raw mosquito counts): 0
  Raw mosquito counts (oocysts per mosquito): 0
[5]; Experiment 6, 10nM
  Mean (number of oocysts counted per mosquito): 58.31
  Prevalence: 98.15
[5]; Experiment 6, 100nM
  Mean (number of oocysts counted per mosquito): 21.75
  Prevalence: 86.76
  Number of oocysts counted per mosquito (raw mosquito counts): 30
[5]; Experiment 6, 1µM
  Mean (number of oocysts counted per mosquito): 0.00
  Prevalence: 0.00
  Number of oocysts counted per mosquito (raw mosquito counts): 0
  Raw mosquito counts (oocysts per mosquito): 0
[5]; read-out: % inhibition (oocyst intensity), Experiment 4, 100nM, vs DMSO
  inhibition at 0.1 µM: 100%
[5]; read-out: % inhibition (oocyst intensity), Experiment 4, 1µM, vs DMSO
  inhibition at 1 µM: 100%
[5]; read-out: % inhibition (oocyst intensity), Experiment 5, 10nM, vs DMSO
  inhibition at 0.01 µM: 28.9%
[5]; read-out: % inhibition (oocyst intensity), Experiment 5, 100nM, vs DMSO
  inhibition at 0.1 µM: 59.6%
[5]; read-out: % inhibition (oocyst intensity), Experiment 5, 1µM, vs DMSO
  inhibition at 1 µM: 100%
[5]; read-out: % inhibition (oocyst intensity), Experiment 6, 10nM, vs DMSO
  inhibition at 0.01 µM: 30.5%
[5]; read-out: % inhibition (oocyst intensity), Experiment 6, 100nM, vs DMSO
  inhibition at 0.1 µM: 74.1%
[5]; read-out: % inhibition (oocyst intensity), Experiment 6, 1µM, vs DMSO
  inhibition at 1 µM: 100%
[5]; [17]
  inhibition at 1 µM: 100%
[5]; read-out: % prev inhibition, Experiment 4, 1µM, vs DMSO
  inhibition at 1 µM: 100%
[5]; read-out: % prev inhibition, Experiment 5, 1µM, vs DMSO
  inhibition at 1 µM: 100%
[5]; read-out: % prev inhibition, Experiment 6, 10nM, vs DMSO
  inhibition at 0.01 µM: 1.85%
[5]; read-out: % prev inhibition, Experiment 6, 100nM, vs DMSO
  inhibition at 0.1 µM: 13.2%
[5]; read-out: % prev inhibition, Experiment 6, 1µM, vs DMSO
  inhibition at 1 µM: 100%
[5]; read-out: inhibition of oocyst intensity Pb SMFA, 10 nM
  inhibition at 0.01 µM: 43%
[5]; read-out: inhibition of oocyst intensity Pb SMFA, 100 nM
  inhibition at 0.1 µM: 77.9%
[6]
  Pf DGFA Male, Expt 1: 97.72
  Pf DGFA Male, Expt 2: 60.95
  Pf DGFA Male, Expt 3: 69.63
  Pf DGFA Male, Expt 4: 73.29
  inhibition at 1 µM: 75.4%
[7]
  Pf DGFA Female, Expt 1: 72.43
  Pf DGFA Female, Expt 2: 81.97
  Pf DGFA Female, Expt 3: -31.20
  Pf DGFA Female, Expt 4: -13.42
  % inhibition Pf DGFA (female) 1 μM (±SEM): 27.45%
  inhibition at 1 µM: 27.4%

## CC[C@H]1CN2CCc3cc(OC)c(OC)cc3[C@@H]2C[C@@H]1C[C@H]1NCCc2cc(OC)c(OC)cc21 [TCMDC-125531]
[1]; [12]
  IC50: 72 nM
HepG2 cytotoxicity assay
  IC50 at 48 h: 1550 nM
HepG2 cells [2]; human
  Unified cytotox: 10.78 µM
HepG2 cells [2]; value reported with the Pb ODA screen, this manuscript
  HepG2 cytoxicity: 1.55 µM
[8]
  IC50: 350 nM
[9]; TCAMS screen comparison
  IC50: 2730 nM
HepG2 cells [10]; value reported with the Pf FGAA screen, ref Miguel-Blanco et al 2017
  HepG2 cytoxicity: 9.77 µM
HepG2 cells [10]; value reported with the Pf GCT ATP screen, ref Almela et al 2016
  HepG2 cytoxicity: 21.03 µM
[4]; [14]
  inhibition at 1 µM: 93.2%
[4]; [15]
  inhibition at 1 µM: 121%
[4]; read-out: Pb ODA IC50 (µM), this manuscript
  IC50: 0.21 µM
[4]; [18]
  IC50: 0.213 µM

## Cn1c(Sc2ncnc3sccc23)nc2ccccc21 [TCMDC-124514]
[1]; [12]
  IC50: 187 nM
[1]; [13]
  IC50: 188 nM
HepG2 cells [2]; HepG2 values of the three screens unified
  Unified cytotox: 100.00 µM
HepG2 cells [2]
  IC50: > 100000 nM
[3]; 1: YES, 0: NO
  Is compound selective in assay? Pb ODA active?: 1 (1: YES)
[3]; [16]
  IC50: > 250 nM and 397 nM
[9]
  IC50: 1250 nM
HepG2 cells [10]; HepG2, ref Miguel-Blanco et al 2017
  HepG2 cytoxicity (Pf FGAA screen): >100 µM
[4]; [14]
  inhibition at 1 µM: 109%
[4]; [15]
  inhibition at 1 µM: 101%
[4]; [16]
  IC50: 0.398 µM
[4]; read-out: Pb ODA IC50, this manuscript
  IC50: 0.4 µM
[11]
  Is compound selective in assay? Pf FGAA active?: 1 (1: YES)
[5]; inhibition of oocyst intensity at 1 μM
  % inhibition Pb SMFA 1 μM (±SEM): 9.1%
[5]; [17]
  inhibition at 1 µM: 9.07%
[6]
  Pf DGFA Male, Expt 1: 96.96
  Pf DGFA Male, Expt 2: 90.56
  Pf DGFA Male, Expt 3: 99.40
  Pf DGFA Male, Expt 4: 95.50
  % inhibition Pf DGFA (male) 1 μM (±SEM): 95.61%
  inhibition at 1 µM: 95.6%
[7]
  Pf DGFA Female, Expt 1: 99.03
  Pf DGFA Female, Expt 2: 87.98
  Pf DGFA Female, Expt 3: 99.79
  Pf DGFA Female, Expt 4: 75.95
  % inhibition Pf DGFA (female) 1 μM (±SEM): 90.69%
  inhibition at 1 µM: 90.7%

## CCCCCCCc1c(C)nc2cc(OC)ccc2c1O [TCMDC-137173, endochin]
[1]; [12]
  IC50: 35 nM
[1]; [13]
  IC50: 35.2 nM
HepG2 cells [2]
  Pb ODA (this manuscript) HepG2 cytoxicity: 100.00 µM
  IC50: > 100000 nM
[3]
  Is compound selective in assay? Pb ODA active?: 1 (key: 1: YES; 0: NO)
[4]; [14]
  inhibition at 1 µM: 115%
[4]; [15]
  inhibition at 1 µM: 101%
[4]; [16]
  IC50: < 0.06 µM
[4]; read-out: Pb ODA (this manuscript) IC50 (µM), P. berghei ookinete development assay, this manuscript
  IC50: 0.0248 µM
[4]; [18]
  IC50: 0.025 µM
[5]; [17]
  inhibition at 1 µM: 98.4%
[6]
  Pf DGFA Male, Expt 1: 94.68
  Pf DGFA Male, Expt 2: 60.36
  Pf DGFA Male, Expt 3: 74.13
  Pf DGFA Male, Expt 4: 77.74
  % inhibition Pf DGFA (male) 1 μM (±SEM): 76.7% and 76.73%
  inhibition at 1 µM: 76.7%
[7]
  Pf DGFA Female, Expt 1: 46.16
  Pf DGFA Female, Expt 2: 7.10
  Pf DGFA Female, Expt 3: 41.06
  Pf DGFA Female, Expt 4: -10.25
  % inhibition Pf DGFA (female) 1 μM (±SEM): 21.02%
  inhibition at 1 µM: 21%
